PubChem BioAssay AID256 (DTP/NCI, 2004)
Where “and” joins values, the source holds several entries; their conditions need not be identical. Identical values can stand only once. Inconclusive results and toxic doses are left out.

Tested on: CD2F1 mice, L1210 leukemia ip, survival T/C
Assay: NCI In Vivo Anticancer Drug Screen. Data for tumor model L1210 Leukemia (intraperitoneal) in CD2F1 (CDF1) mice
Details: higher = longer survival
In short: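 Each value reflects a quotient of treated over vehicle control outcomes in mice with a transplanted tumor.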

[1] = endpoint: mean survival time, dose: 100.0 mg/kg/injection, schedule: Q01DX009 (ip), vehicle: saline with Tween-80
[2] = endpoint: mean survival time, dose: 200.0 mg/kg/injection, schedule: Q01DX009 (ip), vehicle: saline with Tween-80
[3] = endpoint: mean survival time, dose: 400.0 mg/kg/injection, schedule: Q01DX009 (ip), vehicle: saline with Tween-80
[4] = endpoint: mean survival time, dose: 100.0 mg/kg/injection, schedule: Q04DX003 (ip), vehicle: saline with Tween-80
[5] = endpoint: mean survival time, dose: 200.0 mg/kg/injection, schedule: Q04DX003 (ip), vehicle: saline with Tween-80
[6] = endpoint: mean survival time, dose: 400.0 mg/kg/injection, schedule: Q04DX003 (ip), vehicle: saline with Tween-80

N#Cc1c(-c2ccc(F)cc2)c(-c2ccc(F)cc2)nn(CCO)c1=O
T/C (endpoint: median survival time, dose: 12.5 mg/kg/injection, schedule: Q01DX005 (ip), vehicle: distilled water + Tween-80): 98 % of control and 100 % of control
T/C (endpoint: median survival time, dose: 25.0 mg/kg/injection, schedule: Q01DX005 (ip), vehicle: distilled water + Tween-80): 98 % of control and 100 % of control
T/C (endpoint: median survival time, dose: 50.0 mg/kg/injection, schedule: Q01DX005 (ip), vehicle: distilled water + Tween-80): 102 % of control and 104 % of control
T/C (endpoint: median survival time, dose: 72.0 mg/kg/injection, schedule: Q01DX005 (ip), vehicle: water): 106 % of control and 111 % of control
T/C (endpoint: median survival time, dose: 100.0 mg/kg/injection, schedule: Q01DX005 (ip), vehicle: distilled water + Tween-80): 107 % of control
T/C (endpoint: median survival time, dose: 108.0 mg/kg/injection, schedule: Q01DX005 (ip), vehicle: distilled water + Tween-80): 118 % of control
T/C (endpoint: median survival time, dose: 120.0 mg/kg/injection, schedule: Q01DX005 (ip), vehicle: water): 121 % of control and 123 % of control
T/C (endpoint: median survival time, dose: 180.0 mg/kg/injection, schedule: Q01DX005 (ip), vehicle: distilled water + Tween-80): 124 % of control
T/C (endpoint: median survival time, dose: 200.0 mg/kg/injection, schedule: Q01DX005 (ip), vehicle: distilled water + Tween-80): 110 % of control
T/C (endpoint: median survival time, dose: 333.3 mg/kg/injection, schedule: Q01DX005 (ip), vehicle: water): 325 % of control
T/C (endpoint: median survival time, dose: 333.33 mg/kg/injection, schedule: Q01DX005 (ip), vehicle: water): 196 % of control
T/C (endpoint: median survival time, dose: 500.0 mg/kg/injection, schedule: Q01DX005 (ip), vehicle: distilled water + Tween-80): 204 % of control
T/C (endpoint: median survival time, dose: 555.55 mg/kg/injection, schedule: Q01DX005 (ip), vehicle: water): 264 % of control

CC1(C)CC(=O)C=C(OCCc2ccccc2)C1
T/C [1]: 102 % of control
T/C [2]: 102 % of control
T/C [3]: 102 % of control

CC(=O)c1cc(F)ccc1O
T/C [1]: 92 % of control
T/C [2]: 111 % of control
T/C [3]: 88 % of control

[I][Pt+2][I].[NH-]N1CCN([NH-])CC1
T/C (endpoint: mean survival time, dose: 3.13 mg/kg/injection, schedule: Q04DX003 (ip), vehicle: distilled water + Tween-80): 102 % of control
T/C (endpoint: mean survival time, dose: 6.25 mg/kg/injection, schedule: Q04DX003 (ip), vehicle: distilled water + Tween-80): 100 % of control
T/C (endpoint: mean survival time, dose: 12.5 mg/kg/injection, schedule: Q04DX003 (ip), vehicle: distilled water + Tween-80): 102 % of control
T/C (endpoint: mean survival time, dose: 25.0 mg/kg/injection, schedule: Q04DX003 (ip), vehicle: distilled water + Tween-80): 102 % of control
T/C (endpoint: mean survival time, dose: 50.0 mg/kg/injection, schedule: Q04DX003 (ip), vehicle: distilled water + Tween-80): 104 % of control
T/C (endpoint: mean survival time, dose: 100.0 mg/kg/injection, schedule: Q04DX003 (ip), vehicle: distilled water + Tween-80): 102 % of control
T/C (endpoint: mean survival time, dose: 200.0 mg/kg/injection, schedule: Q04DX003 (ip), vehicle: distilled water + Tween-80): 100 % of control

Cc1cc(CSC(=N)N)c(C)cc1CSC(=N)N
T/C (endpoint: mean survival time, dose: 5.0 mg/kg/injection, schedule: Q01DX009 (ip), vehicle: saline with Tween-80): 92 % of control
T/C (endpoint: mean survival time, dose: 5.0 mg/kg/injection, schedule: Q04DX003 (ip), vehicle: saline with Tween-80): 106 % of control
T/C (endpoint: mean survival time, dose: 10.0 mg/kg/injection, schedule: Q01DX009 (ip), vehicle: saline with Tween-80): 101 % of control
T/C (endpoint: mean survival time, dose: 10.0 mg/kg/injection, schedule: Q04DX003 (ip), vehicle: saline with Tween-80): 106 % of control
T/C (endpoint: mean survival time, dose: 20.0 mg/kg/injection, schedule: Q01DX009 (ip), vehicle: saline with Tween-80): 95 % of control
T/C (endpoint: mean survival time, dose: 20.0 mg/kg/injection, schedule: Q04DX003 (ip), vehicle: saline with Tween-80): 101 % of control

S=C(Nc1ccccn1)c1ccccn1
T/C (endpoint: mean survival time, dose: 100.0 mg/kg/injection, schedule: Q04DX002 (ip), vehicle: saline with Tween-80): 111 % of control
T/C [4]: 100 % of control
T/C (endpoint: mean survival time, dose: 200.0 mg/kg/injection, schedule: Q04DX002 (ip), vehicle: saline with Tween-80): 95 % of control
T/C [5]: 94 % of control
T/C (endpoint: mean survival time, dose: 400.0 mg/kg/injection, schedule: Q04DX002 (ip), vehicle: saline with Tween-80): 103 % of control
T/C [6]: 103 % of control

CC(=O)OC1CCC2(C)C(CCC3C4CC=C(C(C)=O)C4(C)CCC32)C1 (centres undefined)
T/C [1]: 92 % of control
T/C [2]: 92 % of control
T/C [3]: 89 % of control

Oc1ccc(C(O)(c2ccccc2)c2ccc(O)c3ccccc23)c2ccccc12
T/C [4]: 102 % of control
T/C [5]: 96 % of control
T/C [6]: 103 % of control

O=C1C=CC(=O)C1
T/C (endpoint: mean survival time, dose: 5.0 mg/kg/injection, schedule: Q04DX002 (ip), vehicle: saline with Tween-80): 108 % of control

C=Cc1ccc(C(N)=O)cc1
T/C [4]: 101 % of control
T/C [5]: 98 % of control
T/C [6]: 96 % of control

Cc1cccc(Nc2c3ccccc3nc3ccccc23)c1
T/C (endpoint: mean survival time, dose: 100.0 mg/kg/injection, schedule: Q01DX001 (ip), vehicle: saline with Tween-80): 100 % of control

CCOC(=O)Nc1cc2c(c(N)n1)N=C(c1ccc(-c3ccccc3)cc1)CN2
T/C (endpoint: mean survival time, dose: 0.78 mg/kg/injection, schedule: Q01DX009 (ip), vehicle: Klucel (hydroxypropylcellulose) (HPC)): 106 % of control
T/C (endpoint: mean survival time, dose: 1.56 mg/kg/injection, schedule: Q01DX009 (ip), vehicle: Klucel (hydroxypropylcellulose) (HPC)): 112 % of control
T/C (endpoint: mean survival time, dose: 3.12 mg/kg/injection, schedule: Q01DX009 (ip), vehicle: Klucel (hydroxypropylcellulose) (HPC)): 114 % of control and 111 % of control
T/C (endpoint: mean survival time, dose: 6.25 mg/kg/injection, schedule: Q01DX009 (ip), vehicle: Klucel (hydroxypropylcellulose) (HPC)): 109 % of control
T/C (endpoint: mean survival time, dose: 12.5 mg/kg/injection, schedule: Q01DX001 (ip), vehicle: Klucel (hydroxypropylcellulose) (HPC)): 115 % of control
T/C (endpoint: mean survival time, dose: 12.5 mg/kg/injection, schedule: Q01DX009 (ip), vehicle: Klucel (hydroxypropylcellulose) (HPC)): 89 % of control
T/C (endpoint: mean survival time, dose: 50.0 mg/kg/injection, schedule: Q01DX001 (ip), vehicle: Klucel (hydroxypropylcellulose) (HPC)): 121 % of control

CC(C)CCC(=O)c1ccoc1
T/C (endpoint: median survival time, dose: 0.12 mg/kg/injection, schedule: Q03HX015 (ip), vehicle: saline with Tween-80): 100 % of control
T/C (endpoint: median survival time, dose: 0.25 mg/kg/injection, schedule: Q03HX015 (ip), vehicle: saline with Tween-80): 103 % of control
T/C (endpoint: median survival time, dose: 0.5 mg/kg/injection, schedule: Q03HX015 (ip), vehicle: saline with Tween-80): 101 % of control
T/C (endpoint: median survival time, dose: 1.0 mg/kg/injection, schedule: Q03HX015 (ip), vehicle: saline with Tween-80): 100 % of control
T/C (endpoint: median survival time, dose: 2.0 mg/kg/injection, schedule: Q03HX015 (ip), vehicle: saline with Tween-80): 96 % of control

O=[N+]([O-])c1cc(CCl)ccc1CCl
T/C (endpoint: mean survival time, dose: 75.0 mg/kg/injection, schedule: Q01DX001 (ip), vehicle: other): 96 % of control
T/C (endpoint: mean survival time, dose: 150.0 mg/kg/injection, schedule: Q01DX001 (ip), vehicle: other): 96 % of control

C=C1CC(C)(Cn2c(N)nc3nc[nH]c3c2=O)OC1=O (centres undefined)
T/C (endpoint: median survival time, dose: 5.38 mg/kg/injection, schedule: Q01DX005 (ip), vehicle: water): 97 % of control
T/C (endpoint: median survival time, dose: 10.75 mg/kg/injection, schedule: Q01DX005 (ip), vehicle: water): 97 % of control
T/C (endpoint: median survival time, dose: 21.5 mg/kg/injection, schedule: Q01DX005 (ip), vehicle: water): 97 % of control
T/C (endpoint: median survival time, dose: 43.0 mg/kg/injection, schedule: Q01DX005 (ip), vehicle: water): 112 % of control

CNNCCCC(=O)NC(C)C
T/C (endpoint: mean survival time, dose: 25.0 mg/kg/injection, schedule: Q04DX003 (ip), vehicle: saline): 105 % of control
T/C (endpoint: mean survival time, dose: 50.0 mg/kg/injection, schedule: Q04DX003 (ip), vehicle: saline): 103 % of control
T/C (endpoint: mean survival time, dose: 100.0 mg/kg/injection, schedule: Q04DX003 (ip), vehicle: saline): 110 % of control
T/C (endpoint: mean survival time, dose: 200.0 mg/kg/injection, schedule: Q04DX003 (ip), vehicle: saline): 112 % of control

[N-]=[N+]=NC1CC(n2ccc(=O)[nH]c2=O)OC1COC(c1ccccc1)(c1ccccc1)c1ccccc1 (centres undefined)
T/C (endpoint: median survival time, dose: 12.5 mg/kg/injection, schedule: Q01DX005 (ip), vehicle: saline with Tween-80): 96 % of control
T/C (endpoint: median survival time, dose: 25.0 mg/kg/injection, schedule: Q01DX005 (ip), vehicle: saline with Tween-80): 101 % of control
T/C (endpoint: median survival time, dose: 50.0 mg/kg/injection, schedule: Q01DX005 (ip), vehicle: saline with Tween-80): 94 % of control
T/C (endpoint: median survival time, dose: 100.0 mg/kg/injection, schedule: Q01DX005 (ip), vehicle: saline with Tween-80): 95 % of control
T/C (endpoint: median survival time, dose: 200.0 mg/kg/injection, schedule: Q01DX005 (ip), vehicle: saline with Tween-80): 91 % of control

CC1(O)CC2CCCC1C2 (centres undefined)
T/C [4]: 93 % of control
T/C [5]: 90 % of control
T/C [6]: 93 % of control

CCOC(C[N+](C)(C)C)OCC
T/C (endpoint: mean survival time, dose: 50.0 mg/kg/injection, schedule: Q01DX009 (ip), vehicle: saline with Tween-80): 100 % of control
T/C [1]: 94 % of control

CCC(c1ccc2cc(OC)ccc2c1)C(CC(=O)O)C(=O)OC (centres undefined)
T/C (endpoint: mean survival time, dose: 100.0 mg/kg/injection, schedule: Q01DX009 (ip), vehicle: Klucel (hydroxypropylcellulose) (HPC)): 98 % of control
T/C (endpoint: mean survival time, dose: 200.0 mg/kg/injection, schedule: Q01DX009 (ip), vehicle: Klucel (hydroxypropylcellulose) (HPC)): 98 % of control
T/C (endpoint: mean survival time, dose: 400.0 mg/kg/injection, schedule: Q01DX009 (ip), vehicle: Klucel (hydroxypropylcellulose) (HPC)): 100 % of control
